The source of these data is ChEMBL document CHEMBL1909046, “DrugMatrix in vitro pharmacology data”.

Beta-2 adrenergic receptor, sequence (P07550 whole entry): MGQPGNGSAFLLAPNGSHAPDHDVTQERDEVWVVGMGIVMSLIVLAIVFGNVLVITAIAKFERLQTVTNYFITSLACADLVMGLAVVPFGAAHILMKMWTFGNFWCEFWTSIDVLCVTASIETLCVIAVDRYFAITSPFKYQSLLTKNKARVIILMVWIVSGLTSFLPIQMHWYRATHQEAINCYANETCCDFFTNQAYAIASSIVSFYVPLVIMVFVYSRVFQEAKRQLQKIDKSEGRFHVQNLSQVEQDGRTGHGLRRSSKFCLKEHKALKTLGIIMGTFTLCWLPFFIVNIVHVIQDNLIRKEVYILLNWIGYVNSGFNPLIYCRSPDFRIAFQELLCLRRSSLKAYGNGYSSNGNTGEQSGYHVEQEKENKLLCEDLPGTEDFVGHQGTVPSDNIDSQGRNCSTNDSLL
C-C chemokine receptor type 5, sequence (P51681 whole entry): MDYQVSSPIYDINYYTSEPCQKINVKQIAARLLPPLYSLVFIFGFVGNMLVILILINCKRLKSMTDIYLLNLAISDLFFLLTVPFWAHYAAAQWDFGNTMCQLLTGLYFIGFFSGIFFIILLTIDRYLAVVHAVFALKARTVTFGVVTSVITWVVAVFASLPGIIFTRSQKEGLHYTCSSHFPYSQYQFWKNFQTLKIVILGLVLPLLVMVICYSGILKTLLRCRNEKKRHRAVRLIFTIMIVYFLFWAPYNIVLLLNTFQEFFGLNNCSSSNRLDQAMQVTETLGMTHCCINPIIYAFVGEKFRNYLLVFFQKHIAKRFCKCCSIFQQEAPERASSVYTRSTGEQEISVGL
D(3) dopamine receptor, sequence (P35462 whole entry): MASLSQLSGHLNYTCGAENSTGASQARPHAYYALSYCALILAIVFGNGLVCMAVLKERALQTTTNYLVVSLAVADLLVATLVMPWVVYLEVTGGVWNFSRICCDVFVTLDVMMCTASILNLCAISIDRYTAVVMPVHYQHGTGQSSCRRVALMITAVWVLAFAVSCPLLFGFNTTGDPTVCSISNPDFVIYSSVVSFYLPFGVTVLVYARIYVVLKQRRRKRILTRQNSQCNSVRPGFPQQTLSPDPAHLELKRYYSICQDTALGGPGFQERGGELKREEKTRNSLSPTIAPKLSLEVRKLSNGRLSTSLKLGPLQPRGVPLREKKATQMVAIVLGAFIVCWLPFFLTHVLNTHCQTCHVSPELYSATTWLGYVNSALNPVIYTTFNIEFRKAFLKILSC
Vascular endothelial growth factor receptor 1, sequence (P17948 whole entry): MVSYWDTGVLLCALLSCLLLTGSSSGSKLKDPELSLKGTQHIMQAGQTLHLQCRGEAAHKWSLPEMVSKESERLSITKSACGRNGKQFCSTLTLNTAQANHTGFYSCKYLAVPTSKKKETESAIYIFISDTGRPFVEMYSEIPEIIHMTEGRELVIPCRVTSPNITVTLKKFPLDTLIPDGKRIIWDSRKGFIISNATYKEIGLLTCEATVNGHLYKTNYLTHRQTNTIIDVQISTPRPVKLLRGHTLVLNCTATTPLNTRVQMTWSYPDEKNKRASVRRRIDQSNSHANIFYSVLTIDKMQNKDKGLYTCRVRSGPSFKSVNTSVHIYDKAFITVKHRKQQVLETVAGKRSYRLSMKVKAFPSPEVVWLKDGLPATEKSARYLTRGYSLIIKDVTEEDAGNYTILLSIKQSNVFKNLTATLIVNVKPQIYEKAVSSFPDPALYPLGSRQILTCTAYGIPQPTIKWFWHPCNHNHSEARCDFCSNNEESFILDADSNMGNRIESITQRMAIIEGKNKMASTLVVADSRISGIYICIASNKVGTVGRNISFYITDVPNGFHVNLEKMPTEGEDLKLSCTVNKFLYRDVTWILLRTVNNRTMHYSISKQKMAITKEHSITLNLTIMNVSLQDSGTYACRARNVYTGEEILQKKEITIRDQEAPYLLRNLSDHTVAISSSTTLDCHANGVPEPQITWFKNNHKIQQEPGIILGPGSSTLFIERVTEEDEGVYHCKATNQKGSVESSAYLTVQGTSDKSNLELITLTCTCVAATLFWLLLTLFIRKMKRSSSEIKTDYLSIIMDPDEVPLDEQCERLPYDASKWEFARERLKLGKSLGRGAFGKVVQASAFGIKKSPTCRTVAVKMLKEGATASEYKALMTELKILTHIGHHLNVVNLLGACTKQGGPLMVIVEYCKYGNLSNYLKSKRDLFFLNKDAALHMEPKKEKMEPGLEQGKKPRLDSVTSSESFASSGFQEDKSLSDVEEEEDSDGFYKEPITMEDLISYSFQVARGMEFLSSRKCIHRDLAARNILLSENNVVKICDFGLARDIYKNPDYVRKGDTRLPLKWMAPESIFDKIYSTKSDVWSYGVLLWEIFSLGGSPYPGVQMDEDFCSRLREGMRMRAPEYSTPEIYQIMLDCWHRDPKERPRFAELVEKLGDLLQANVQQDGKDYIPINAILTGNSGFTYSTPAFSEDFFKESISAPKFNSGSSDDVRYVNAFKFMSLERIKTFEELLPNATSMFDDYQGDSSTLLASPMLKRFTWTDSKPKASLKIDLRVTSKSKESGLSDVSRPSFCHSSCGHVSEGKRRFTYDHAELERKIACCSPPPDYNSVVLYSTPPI
D(1A) dopamine receptor, sequence (P21728 whole entry): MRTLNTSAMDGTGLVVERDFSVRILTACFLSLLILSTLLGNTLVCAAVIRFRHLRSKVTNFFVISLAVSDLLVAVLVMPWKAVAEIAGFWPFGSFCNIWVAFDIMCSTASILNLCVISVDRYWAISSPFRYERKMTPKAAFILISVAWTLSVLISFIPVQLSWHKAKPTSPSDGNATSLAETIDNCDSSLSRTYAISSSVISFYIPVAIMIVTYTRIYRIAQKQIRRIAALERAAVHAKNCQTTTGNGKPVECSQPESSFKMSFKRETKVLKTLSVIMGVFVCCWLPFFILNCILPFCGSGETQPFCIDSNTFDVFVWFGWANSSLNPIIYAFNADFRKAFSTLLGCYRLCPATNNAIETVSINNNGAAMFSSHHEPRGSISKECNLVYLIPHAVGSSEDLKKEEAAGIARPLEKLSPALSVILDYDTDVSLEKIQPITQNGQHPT

In the first assay the target is Mitogen-activated protein kinase 14 (Homo sapiens, UniProt Q16539).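 Further: inhibition of p38alpha enzyme activity in a biochemical kinase assay, with myelin basic protein serving as substrate; in other assays of this panel Not Active means under 50% inhibition at 10 µM.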
Mitogen-activated protein kinase 14, sequence (Q16539 whole entry): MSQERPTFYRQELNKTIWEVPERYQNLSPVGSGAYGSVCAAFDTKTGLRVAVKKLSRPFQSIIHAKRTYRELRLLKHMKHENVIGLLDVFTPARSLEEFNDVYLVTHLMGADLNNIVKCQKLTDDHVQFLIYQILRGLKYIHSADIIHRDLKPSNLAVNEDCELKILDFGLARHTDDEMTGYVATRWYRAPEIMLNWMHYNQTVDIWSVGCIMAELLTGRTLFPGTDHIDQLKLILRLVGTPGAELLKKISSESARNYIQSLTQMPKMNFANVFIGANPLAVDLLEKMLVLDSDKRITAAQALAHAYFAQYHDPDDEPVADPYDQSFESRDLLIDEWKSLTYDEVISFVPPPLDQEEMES
Assay: not given
Also noted: species or system Escherichia coli.
Conditions: not given
As to `CN1[C@@H]2CC[C@H]1C[C@@H](OC(=O)c1c[nH]c3ccccc13)C2` [TROPISETRON], the IC50 result is listed as “Not Active”.
The same measure, in the same setting: the same measure for `COC(=O)c1ccc(O)cc1` [METHYLPARABEN]: “Not Active”.

The next assay addresses D(3) dopamine receptor (Homo sapiens, UniProt P35462). Description: DRUGMATRIX: Dopamine D3 radioligand binding (ligand: [3H] Spiperone). It counts as cell membranes, CHO, Membrane. The conditions noted are these: cho.
On to `CN1[C@@H]2CC[C@H]1C[C@@H](OC(=O)c1c[nH]c3ccccc13)C2` [TROPISETRON], for which the IC50 result was “Not Active”.
The same measure, in the same setting: the same measure for `COC(=O)c1ccc(O)cc1` [METHYLPARABEN]: “Not Active”.

A further assay addresses Beta-2 adrenergic receptor (Homo sapiens, UniProt P07550). The experiment in a line: DRUGMATRIX: Adrenergic beta2 radioligand binding (ligand: [3H] CGP-12177). In kind it is cell membranes, Membrane. The conditions noted are these: cho; Not Active = under 50% inhibition at 10 µM.
`CN1[C@@H]2CC[C@H]1C[C@@H](OC(=O)c1c[nH]c3ccccc13)C2` [TROPISETRON]: the IC50 entry is on record as “Not Active”.
On the same count and under the same terms, the same measure for `COC(=O)c1ccc(O)cc1` [METHYLPARABEN]: “Not Active”.

In a further assay the target is T1, Polyunsaturated fatty acid lipoxygenase ALOX15 (Oryctolagus cuniculus, UniProt P12530).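 Further: inhibition of 15-lipoxygenase enzyme activity measured with linoleic acid as the substrate; in other assays of this panel Not Active means under 50% inhibition at 10 µM.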
T1 sequence (P12530 whole entry): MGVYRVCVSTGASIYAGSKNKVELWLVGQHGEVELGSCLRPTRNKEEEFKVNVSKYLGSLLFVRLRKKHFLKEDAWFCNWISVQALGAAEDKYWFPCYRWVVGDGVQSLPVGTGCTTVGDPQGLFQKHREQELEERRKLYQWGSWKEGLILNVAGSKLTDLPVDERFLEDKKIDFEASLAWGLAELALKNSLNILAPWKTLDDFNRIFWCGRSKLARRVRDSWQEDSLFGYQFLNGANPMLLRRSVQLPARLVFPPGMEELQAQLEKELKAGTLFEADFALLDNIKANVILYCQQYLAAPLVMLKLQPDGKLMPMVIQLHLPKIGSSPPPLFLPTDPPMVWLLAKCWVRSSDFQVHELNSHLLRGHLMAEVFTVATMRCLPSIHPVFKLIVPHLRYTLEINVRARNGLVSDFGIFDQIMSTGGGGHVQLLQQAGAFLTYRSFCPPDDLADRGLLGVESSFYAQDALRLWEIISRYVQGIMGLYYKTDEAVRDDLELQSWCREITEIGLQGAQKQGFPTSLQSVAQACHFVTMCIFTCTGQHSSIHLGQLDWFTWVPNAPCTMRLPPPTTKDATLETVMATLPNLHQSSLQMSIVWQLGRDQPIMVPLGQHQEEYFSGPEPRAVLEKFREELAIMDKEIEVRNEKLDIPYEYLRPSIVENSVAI
The experiment in a line: biochemical. The conditions noted are these: reticulocytes. In kind it is tissue-based, Reticulocytes.
For `CN1[C@@H]2CC[C@H]1C[C@@H](OC(=O)c1c[nH]c3ccccc13)C2` [TROPISETRON], the IC50 entry was “Not Active”.
Same read-out and setting: the same measure for `COC(=O)c1ccc(O)cc1` [METHYLPARABEN]: “Not Active”.

Tested on in another assay: not listed separately
The experiment in a line: DRUGMATRIX: beta-Lactamase enzyme inhibition (substrate: Nitrocefin). Also noted: species or system Bacillus cereus. The conditions noted are these: Not Active = under 50% inhibition at 10 µM.
For the molecule `CN1[C@@H]2CC[C@H]1C[C@@H](OC(=O)c1c[nH]c3ccccc13)C2` [TROPISETRON], the IC50 result is “Not Active” and the Ki result is recorded as “Not Active”.
For `COC(=O)c1ccc(O)cc1` [METHYLPARABEN], the IC50 result is recorded as “Not Active” and the Ki result was “Not Active”.

Tested on in another assay: not listed separately
The experiment in a line: DRUGMATRIX: Glutamate, AMPA radioligand binding (ligand: [3H] AMPA). In kind it is cell membranes, Rattus norvegicus, Wistar, Cerebral cortex, Membrane. The conditions noted are these: Not Active = under 50% inhibition at 10 µM.
With `CN1[C@@H]2CC[C@H]1C[C@@H](OC(=O)c1c[nH]c3ccccc13)C2` [TROPISETRON], the IC50 result is on record as “Not Active” and the Ki result is listed as “Not Active”.
As for `COC(=O)c1ccc(O)cc1` [METHYLPARABEN], the IC50 entry is reported as “Not Active” and the Ki entry is on record as “Not Active”.

The target in another assay is T2, Adenosine receptor A1 (Homo sapiens, UniProt P30542).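 Further: radioligand binding assay at the adenosine A1 receptor, with DPCPX serving as the labelled ligand; in other assays of this panel Not Active means under 50% inhibition at 10 µM.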
T2 sequence (P30542 whole entry): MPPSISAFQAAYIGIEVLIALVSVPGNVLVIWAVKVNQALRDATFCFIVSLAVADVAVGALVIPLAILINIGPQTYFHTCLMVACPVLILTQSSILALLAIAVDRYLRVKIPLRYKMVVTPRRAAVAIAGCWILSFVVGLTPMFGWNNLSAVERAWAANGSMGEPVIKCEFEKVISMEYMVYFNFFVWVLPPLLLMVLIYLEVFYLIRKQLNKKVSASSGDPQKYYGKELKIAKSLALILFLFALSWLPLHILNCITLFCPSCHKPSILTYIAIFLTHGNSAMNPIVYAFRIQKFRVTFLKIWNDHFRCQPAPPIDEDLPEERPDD
Assay: not given
In kind it is cell membranes, CHO, Membrane. The conditions noted are these: cho.
With `CN1[C@@H]2CC[C@H]1C[C@@H](OC(=O)c1c[nH]c3ccccc13)C2` [TROPISETRON], the IC50 entry is “Not Active”.
On the same count and under the same terms, the same measure for `COC(=O)c1ccc(O)cc1` [METHYLPARABEN]: “Not Active”.

A further assay addresses C-C chemokine receptor type 5 (Homo sapiens, UniProt P51681).
Assay: not given
It counts as cell membranes, Membrane. The conditions noted are these: hek293.
For `CN1[C@@H]2CC[C@H]1C[C@@H](OC(=O)c1c[nH]c3ccccc13)C2` [TROPISETRON], the IC50 result was “Not Active”.
As for `COC(=O)c1ccc(O)cc1` [METHYLPARABEN], the IC50 result is given as “Not Active”.

For another assay, the target named is T3, Cholecystokinin receptor type A (Homo sapiens, UniProt P32238). Further: in other assays of this panel Not Active means under 50% inhibition at 10 µM.
T3 sequence (P32238 whole entry): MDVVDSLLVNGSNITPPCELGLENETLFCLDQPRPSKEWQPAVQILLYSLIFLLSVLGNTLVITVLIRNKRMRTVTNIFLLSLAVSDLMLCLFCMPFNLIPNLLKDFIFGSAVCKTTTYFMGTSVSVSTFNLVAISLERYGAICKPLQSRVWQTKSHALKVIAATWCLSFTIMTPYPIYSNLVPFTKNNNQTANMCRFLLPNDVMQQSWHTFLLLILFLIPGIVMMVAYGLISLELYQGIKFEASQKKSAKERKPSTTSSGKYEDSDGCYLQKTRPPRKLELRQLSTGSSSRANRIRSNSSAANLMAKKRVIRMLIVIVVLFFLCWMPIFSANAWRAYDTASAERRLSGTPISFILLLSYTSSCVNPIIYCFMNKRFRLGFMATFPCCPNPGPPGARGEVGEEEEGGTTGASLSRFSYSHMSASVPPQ
Assay: not given
In kind it is cell membranes, Membrane. The conditions noted are these: 1321-n1.
Consider `CN1[C@@H]2CC[C@H]1C[C@@H](OC(=O)c1c[nH]c3ccccc13)C2` [TROPISETRON], for which the IC50 result is “Not Active”.
Same read-out and setting: the same measure for `COC(=O)c1ccc(O)cc1` [METHYLPARABEN]: “Not Active”.

The target of the next assay is T4, Alpha-2A adrenergic receptor (Homo sapiens, UniProt P08913). Further: in other assays of this panel Not Active means under 50% inhibition at 10 µM.
T4 sequence (P08913 whole entry): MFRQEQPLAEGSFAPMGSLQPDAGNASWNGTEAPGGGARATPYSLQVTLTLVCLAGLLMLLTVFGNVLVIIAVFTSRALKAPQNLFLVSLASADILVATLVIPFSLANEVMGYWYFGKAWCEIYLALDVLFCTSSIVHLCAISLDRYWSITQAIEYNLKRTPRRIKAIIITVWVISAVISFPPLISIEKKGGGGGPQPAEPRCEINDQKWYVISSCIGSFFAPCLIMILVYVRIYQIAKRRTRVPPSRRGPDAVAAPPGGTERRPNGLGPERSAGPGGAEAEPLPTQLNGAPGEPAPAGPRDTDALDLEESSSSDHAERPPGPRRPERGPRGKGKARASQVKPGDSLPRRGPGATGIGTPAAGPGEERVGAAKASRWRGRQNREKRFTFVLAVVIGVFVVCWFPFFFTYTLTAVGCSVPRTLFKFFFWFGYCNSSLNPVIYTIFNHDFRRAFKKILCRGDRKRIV
Assay: not given
In kind it is cell membranes, Sf9, Membrane. The conditions noted are these: sf9.
On to `CN1[C@@H]2CC[C@H]1C[C@@H](OC(=O)c1c[nH]c3ccccc13)C2` [TROPISETRON], for which the IC50 result is “Not Active”.
As for `COC(=O)c1ccc(O)cc1` [METHYLPARABEN], the IC50 result was “Not Active”.

Tested on in the next assay: not listed separately
Description: DRUGMATRIX: Atrial Natriuretic Factor (ANF) radioligand binding (ligand: [125I] ANF (rat)). In kind it is cell membranes, Cavia porcellus, Dunkin-Hartley, Adrenal gland, Membrane. The conditions noted are these: Not Active = under 50% inhibition at 10 µM.
For `CN1[C@@H]2CC[C@H]1C[C@@H](OC(=O)c1c[nH]c3ccccc13)C2` [TROPISETRON], the IC50 result is “Not Active” and the Ki entry is on record as “Not Active”.
In the case of `COC(=O)c1ccc(O)cc1` [METHYLPARABEN], the IC50 entry is reported as “Not Active” and the Ki result is recorded as “Not Active”.

Tested on in another assay: not listed separately
Description: DRUGMATRIX: Calcium Channel Type L, Dihydropyridine radioligand binding (ligand: [3H] Nitrendipine). In kind it is cell membranes, Rattus norvegicus, Wistar, Cerebral cortex, Membrane. Conditions: Not Active = under 50% inhibition at 10 µM.
As to `CN1[C@@H]2CC[C@H]1C[C@@H](OC(=O)c1c[nH]c3ccccc13)C2` [TROPISETRON], the IC50 entry is given as “Not Active” and the Ki entry is listed as “Not Active”.
On to `COC(=O)c1ccc(O)cc1` [METHYLPARABEN], for which the IC50 entry was “Not Active” and the Ki result is “Not Active”.

A further assay concerns the target D(1A) dopamine receptor (Homo sapiens, UniProt P21728). Description: DRUGMATRIX: Dopamine D1 radioligand binding (ligand: [3H] SCH-23390). It counts as cell membranes, CHO, Membrane. The conditions noted are these: cho; Not Active = under 50% inhibition at 10 µM.
Regarding `CN1[C@@H]2CC[C@H]1C[C@@H](OC(=O)c1c[nH]c3ccccc13)C2` [TROPISETRON], the IC50 result is “Not Active”.
On the same count and under the same terms, the same measure for `COC(=O)c1ccc(O)cc1` [METHYLPARABEN]: “Not Active”.

In the next assay the target is 5-hydroxytryptamine receptor 2B (Homo sapiens, UniProt P41595). Further: in other assays of this panel Not Active means under 50% inhibition at 10 µM.
5-hydroxytryptamine receptor 2B, sequence (P41595 whole entry): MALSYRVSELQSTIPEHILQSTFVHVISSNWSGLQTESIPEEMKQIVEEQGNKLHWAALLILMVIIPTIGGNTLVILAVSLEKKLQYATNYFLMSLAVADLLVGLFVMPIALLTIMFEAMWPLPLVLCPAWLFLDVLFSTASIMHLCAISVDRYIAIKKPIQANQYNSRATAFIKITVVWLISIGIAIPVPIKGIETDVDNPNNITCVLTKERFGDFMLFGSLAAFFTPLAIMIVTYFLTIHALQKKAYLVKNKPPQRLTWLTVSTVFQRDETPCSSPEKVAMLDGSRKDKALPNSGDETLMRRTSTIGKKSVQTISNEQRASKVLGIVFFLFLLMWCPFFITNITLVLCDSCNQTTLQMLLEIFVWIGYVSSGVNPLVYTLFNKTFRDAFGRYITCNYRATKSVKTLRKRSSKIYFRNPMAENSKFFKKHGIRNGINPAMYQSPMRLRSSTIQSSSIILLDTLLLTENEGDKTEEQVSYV
Assay: not given
Conditions: cho-k1. In kind it is cell membranes, CHO-K1, Membrane.
Turning to `CN1[C@@H]2CC[C@H]1C[C@@H](OC(=O)c1c[nH]c3ccccc13)C2` [TROPISETRON], the IC50 entry is listed as “Not Active”.
As to `COC(=O)c1ccc(O)cc1` [METHYLPARABEN], the IC50 entry is “Not Active”.

A further assay addresses Aldo-keto reductase family 1 member B1 (Rattus norvegicus, UniProt P07943).
Assay: not given
It counts as tissue-based, Lens of camera-type eye.
Conditions: not given
As for `CN1[C@@H]2CC[C@H]1C[C@@H](OC(=O)c1c[nH]c3ccccc13)C2` [TROPISETRON], the IC50 entry is on record as “Not Active”.
Same read-out and setting: the same measure for `COC(=O)c1ccc(O)cc1` [METHYLPARABEN]: “Not Active”.

The next assay has as its target Vascular endothelial growth factor receptor 1 (Homo sapiens, UniProt P17948). Further: in other assays of this panel Not Active means under 50% inhibition at 10 µM.
Assay: not given
It counts as cell-based. Conditions: huvec.
Take `CN1[C@@H]2CC[C@H]1C[C@@H](OC(=O)c1c[nH]c3ccccc13)C2` [TROPISETRON]: the IC50 result is “Not Active”.
Consider `COC(=O)c1ccc(O)cc1` [METHYLPARABEN], for which the IC50 result is reported as “Not Active”.

The target in the next assay is Substance-P receptor (Homo sapiens, UniProt P25103). Further: in other assays of this panel Not Active means under 50% inhibition at 10 µM.
Substance-P receptor, sequence (P25103 whole entry): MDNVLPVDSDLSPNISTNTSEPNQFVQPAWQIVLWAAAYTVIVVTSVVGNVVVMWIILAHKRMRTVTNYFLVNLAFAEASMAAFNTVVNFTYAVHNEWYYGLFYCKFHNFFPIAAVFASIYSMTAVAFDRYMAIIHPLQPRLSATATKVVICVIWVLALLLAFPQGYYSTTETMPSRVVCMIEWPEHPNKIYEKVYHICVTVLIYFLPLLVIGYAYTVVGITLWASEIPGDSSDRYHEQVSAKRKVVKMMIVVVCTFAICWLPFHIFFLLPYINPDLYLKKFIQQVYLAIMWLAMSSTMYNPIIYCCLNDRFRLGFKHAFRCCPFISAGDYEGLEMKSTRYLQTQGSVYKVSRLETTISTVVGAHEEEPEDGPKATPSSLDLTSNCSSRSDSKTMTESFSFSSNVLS
Assay: not given
Conditions: cho. In kind it is cell membranes, CHO, Membrane.
`CN1[C@@H]2CC[C@H]1C[C@@H](OC(=O)c1c[nH]c3ccccc13)C2` [TROPISETRON]: the IC50 entry is listed as “Not Active”.
The same measure, in the same setting: the same measure for `COC(=O)c1ccc(O)cc1` [METHYLPARABEN]: “Not Active”.
